Columns and labels:
recombinant human BACE-1 = recombinant human BACE-1 (Homo sapiens (Human), UniProt P56817); experiment: Calculation of 50% inhibitory concentration (IC50) of BACE-1 (Test Example 5); type: biochemical; details: 37° C., 2.5 hr, fluorescent substrate peptide
Procedure: Compounds were dissolved in 0.1 M sodium acetate buffer (with 150 mM sodium chloride, pH 4.5) to each concentration with DMSO (concentration of compounds: 0.3, 0.9, 3.0, 9.0, and 30.0). The final concentration of DMSO was 10%. The solution with no compound was used as a negative control. 15 μL of these solutions, recombinant human BACE-1 (1.0 U/ml, Invitrogen), and the fluorescent substrate peptide (2.5 nM) were mixed in a black 384-well plate (Costar). Then, mixtures were incubated in the dark at 37° C. for 2.5 hr. The fluorescence intensities of the mixtures were measured at 540 nm for excitation and at 590 nm for emission. The inhibition ratio was calculated as a percentage of the negative control. The sequence of the peptide was […] and labeled with Cy3 at Ser-1 and with Cy5Q at Lys-9. Final concentrations of compounds were as follows: […].

[1] = target: recombinant human β-secretase (rhBACE-1) (Homo sapiens (Human), UniProt P56817); experiment: β-Secretase enzyme inhibition assay (Test Example 1); type: biochemical; details: compound solution 3 μM (FIG. 1 legend: 1.0 μM), 37° C., 2 hr, fluorescent substrate peptide
Procedure: β-Secretase Enzyme Inhibition Assay
Compounds were dissolved in dimethylsulfoxide (DMSO), and further diluted in 0.1 M sodium acetate buffer (with 150 mM sodium chloride, pH 4.5). The solution with no compound was used as a negative control. Then, 100 μL of these solutions (compound concentration: 3 μM), 1 μL of recombinant human β-secretase (rhBACE-1, R&D), and 5 μL of the fluorescent substrate peptide were mixed in a black 96-well plate (Nunc). After mixtures were incubated in the dark at 37° C. for 2 hr, the fluorescence intensities of the mixtures were measured by fluorescence microplate reader (Wallac) at 540 nm for excitation and at 590 nm for emission. The inhibition ratio was calculated as a percentage of the negative control. The sequence of the peptide was […] and labeled with fluorescent donor (Cy3) at Ser-1 and with quencher (Cy5Q) at Lys-9, respectively (Invitrogen).

recombinant human BACE-1, sequence (P56817 46-501): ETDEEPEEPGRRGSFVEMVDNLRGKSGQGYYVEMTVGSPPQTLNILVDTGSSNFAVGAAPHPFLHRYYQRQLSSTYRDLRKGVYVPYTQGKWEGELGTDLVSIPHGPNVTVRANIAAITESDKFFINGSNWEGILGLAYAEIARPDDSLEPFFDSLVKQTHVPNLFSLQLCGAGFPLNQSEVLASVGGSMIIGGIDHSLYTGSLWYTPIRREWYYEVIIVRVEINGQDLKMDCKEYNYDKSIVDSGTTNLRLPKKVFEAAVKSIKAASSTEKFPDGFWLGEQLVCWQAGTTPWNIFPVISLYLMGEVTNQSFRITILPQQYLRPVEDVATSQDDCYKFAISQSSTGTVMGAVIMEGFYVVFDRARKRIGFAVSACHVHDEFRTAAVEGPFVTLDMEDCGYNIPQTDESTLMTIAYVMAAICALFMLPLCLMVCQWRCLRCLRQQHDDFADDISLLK
recombinant human β-secretase (rhBACE-1), sequence (P56817 46-501): as above

O=C(/C=C/c1cc(O)ccc1[N+](=O)[O-])CC(=O)/C=C/c1cc(O)ccc1[N+](=O)[O-] [CU381, (1E,6E)-1,7-bis(5-hydroxy-2-nitrophenyl)hepta-1,6-diene-3,5-dione]
inhibitory effect on BACE-1 activity (IC50 shown in FIG. 2) (recombinant human BACE-1): inhibitory effect on BACE-1 activity at relatively low concentration | melting point: 253 to 262 °C

COc1ccc(/C=C/C(=O)CC(=O)/C=C/c2cc(O)ccc2[N+](=O)[O-])cc1O [CU133, (1E,6E)-1-(3-hydroxy-4-methoxyphenyl)-7-(5-hydroxy-2-nitrophenyl)hepta-1,6-diene-3,5-dione]
inhibitory effect on BACE-1 activity (IC50 shown in FIG. 2) (recombinant human BACE-1): inhibitory effect on BACE-1 activity at relatively low concentration | melting point: 107 to 111 °C

O=C(/C=C/c1ccc(O)cc1)CC(=O)/C=C/c1cc(O)ccc1[N+](=O)[O-] [CU131, (1E,6E)-1-(4-hydroxyphenyl)-7-(5-hydroxy-2-nitrophenyl)hepta-1,6-diene-3,5-dione]
inhibitory effect on BACE-1 activity (IC50 shown in FIG. 2) (recombinant human BACE-1): inhibitory effect on BACE-1 activity at relatively low concentration | melting point: 187 to 194 °C

O=C(/C=C/c1ccc(O)cc1)CC(=O)/C=C/c1c[nH]c2cccc([N+](=O)[O-])c12 [CU461, (1E,6E)-1-(4-hydroxyphenyl)-7-(4-nitro-1H-indol-3-yl)hepta-1,6-diene-3,5-dione]
inhibitory effect on BACE-1 activity (IC50 shown in FIG. 2) (recombinant human BACE-1): inhibitory effect on BACE-1 activity at relatively low concentration | melting point: 228 to 232 °C

COc1cc(/C=C/C(=O)CC(=O)/C=C/c2cc(O)ccc2[N+](=O)[O-])ccc1O [CU132, (1E,6E)-1-(4-hydroxy-3-methoxyphenyl)-7-(5-hydroxy-2-nitrophenyl)hepta-1,6-diene-3,5-dione]
inhibitory effect on BACE-1 activity (IC50 shown in FIG. 2) (recombinant human BACE-1): inhibitory effect on BACE-1 activity at relatively low concentration | melting point: 147 to 152 °C

O=C(/C=C/c1ccc(O)cc1)CC(=O)/C=C/c1cc(OCc2ccccc2)ccc1Br [CU531, (1E,6E)-1-(5-benzyloxy-2-bromophenyl)-7-(4-hydroxyphenyl)hepta-1,6-diene-3,5-dione]
inhibitory effect on BACE-1 activity (IC50 shown in FIG. 2) (recombinant human BACE-1): inhibitory effect on BACE-1 activity at relatively low concentration

COc1cc(/C=C/C(=O)CC(=O)/C=C/c2ccc(O)c(C)c2)ccc1O [CU031, (1E,6E)-1-(4-hydroxy-3-methoxyphenyl)-7-(4-hydroxy-3-methylphenyl)hepta-1,6-diene-3,5-dione]
inhibition of BACE-1 enzyme activity (inhibitory activities (%) shown in FIG. 1) [1]: strongly inhibited | melting point: 173 to 175 °C

CN(C)c1ccc(/C=C/C(=O)CC(=O)/C=C/c2ccc(O)cc2)c([N+](=O)[O-])c1 [CU194, (1E,6E)-1-(4-dimethylamino-2-nitrophenyl)-7-(4-hydroxyphenyl)hepta-1,6-diene-3,5-dione]
inhibition of BACE-1 enzyme activity (inhibitory activities (%) shown in FIG. 1) [1]: strongly inhibited | melting point: 217 to 222 °C

COc1ccc(/C=C/C(=O)CC(=O)/C=C/c2cccc(O)c2OC)cc1O [CU176, (1E,6E)-1-(3-hydroxy-2-methoxyphenyl)-7-(3-hydroxy-4-methoxyphenyl)hepta-1,6-diene-3,5-dione]
inhibition of BACE-1 enzyme activity (inhibitory activities (%) shown in FIG. 1) [1]: strongly inhibited | melting point: 190 to 192 °C

O=C(/C=C/c1ccc(O)cc1)CC(=O)/C=C/c1c[nH]c2ccccc12 [CU110, (1E,6E)-1-(4-hydroxyphenyl)-7-(1H-indol-3-yl)hepta-1,6-diene-3,5-dione]
inhibition of BACE-1 enzyme activity (inhibitory activities (%) shown in FIG. 1) [1]: strongly inhibited | melting point: 215 to 220 °C

COc1ccc(/C=C/C(=O)CC(=O)/C=C/c2c(OC)cccc2OC)cc1O [CU104, (1E,6E)-1-(2,6-dimethoxyphenyl)-7-(3-hydroxy-4-methoxyphenyl)hepta-1,6-diene-3,5-dione]
inhibition of BACE-1 enzyme activity (inhibitory activities (%) shown in FIG. 1) [1]: strongly inhibited | melting point: 74 to 80 °C

Reference: patent US8962674B2 (Tokyo Institute of Technology, priority 2006, dated 2015)
